Patent US11197859B2 (AUTIFONY THERAPEUTICS LIMITED, priority 2010, dated 2021)

Legend:
[1] = molecular target: T1, human Kv3.2 channels (hKv3.2) (Homo sapiens, UniProt Q96PR1); test: IonWorks Quattro electrophysiology, hKv3.2 currents, activation time constant (Tauact); format: cell-based; conditions: hKv3.2, -15 mV pulse
T1 construct: expressed in transfected cells
T1 sequence (Q96PR1 1-638): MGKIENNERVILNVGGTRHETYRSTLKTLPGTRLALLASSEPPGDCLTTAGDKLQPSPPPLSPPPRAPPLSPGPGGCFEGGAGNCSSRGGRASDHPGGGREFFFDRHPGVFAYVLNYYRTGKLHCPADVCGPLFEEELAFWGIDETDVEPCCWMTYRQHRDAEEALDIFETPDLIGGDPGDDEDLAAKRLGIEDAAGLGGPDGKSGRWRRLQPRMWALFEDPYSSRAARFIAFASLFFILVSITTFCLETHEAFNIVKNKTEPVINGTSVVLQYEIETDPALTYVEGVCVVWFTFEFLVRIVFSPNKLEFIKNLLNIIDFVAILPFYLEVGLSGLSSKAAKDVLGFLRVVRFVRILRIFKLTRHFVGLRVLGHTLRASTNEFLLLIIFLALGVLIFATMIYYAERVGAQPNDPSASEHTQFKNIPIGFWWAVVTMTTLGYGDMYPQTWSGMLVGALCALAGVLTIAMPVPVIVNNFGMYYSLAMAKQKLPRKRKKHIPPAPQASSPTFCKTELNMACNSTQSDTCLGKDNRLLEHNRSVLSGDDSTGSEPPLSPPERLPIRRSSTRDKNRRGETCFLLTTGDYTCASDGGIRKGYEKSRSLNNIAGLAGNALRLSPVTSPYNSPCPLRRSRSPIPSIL
Protocol: The ability of the compounds of the disclosure to modulate the voltage-gated potassium channel subtypes Kv3.2/3.1 may be determined using the following assay.
To assess compound effects on human Kv3.2 channels (hKv3.2), a stable cell line expressing hKv3.2 was created by transfecting Chinese Hamster Ovary (CHO)-K1 cells with a pCIH5-hKv3.2 vector. Cells were cultured in DMEM/F12 medium supplemented by 10% Foetal Bovine Serum, 1× non-essential amino acids (Invitrogen) and 500 ug/ml of Hygromycin-B (Invitrogen). Cells were grown and maintained at 37° C. in a humidified environment containing 5% CO2 in air.
The day of the experiment, cells were removed from the incubator and the culture medium removed. Cells were washed with 5 ml of Dulbecco's PBS (DPBS) calcium and magnesium free and detached by the addition of 3 ml Versene (Invitrogen, Italy) followed by a brief incubation at 37° C. for 5 minutes. The flask was tapped to dislodge cells and 10 ml of DPBS containing calcium and magnesium was added to prepare a cell suspension. The cell suspension was then placed into a 15 ml centrifuge tube and centrifuged for 2 min at 1200 rpm. After centrifugation, the supernatant was removed and the cell pellet re-suspended in 4 ml of DPBS containing calcium and magnesium using a 5 ml pipette to break up the pellet. Cell suspension volume was then corrected to give a cell concentration for the assay of approximately 3 million cells per ml.
Experiments were conducted at room temperature using IonWorks Quattro™ planar array electrophysiology technology (Molecular Devices Corp.) with PatchPlate™ PPC. Stimulation protocols and data acquisition were carried out using a microcomputer (Dell Pentium 4). Planar electrode hole resistances(Rp) were determined by applying a 10 mV voltage step across each well. These measurements were performed before cell addition. […] Following this, amphotericin-B solution was added to the intracellular face of the electrode to achieve intracellular access. Cells were held at −70 mV. Leak subtraction was conducted in all experiments by applying 50 ms hyperpolarizing (10 mV) prepulses to evoke leak currents followed by a 20 ms period at the holding potential before test pulses. From the holding potential of −70 mV, a first test pulse to −15 mV was applied for 100 ms and following a further 100 ms at −70 mV, a second pulse to 40 mV was applied for 50 ms. Cells were then maintained for a further 100 ms at −100 mV and then a voltage ramp from −100 mV to 40 mV was applied over 200 ms. In all experiments, the test pulses protocol was performed in the absence (pre-read) and presence (post-read) of the test compound. Pre- and post-reads were separated by the compound addition followed by a 3 minute incubation.
The intracellular solution contained the following (in mM): K-gluconate 100, KCl 54, MgCl2 3.2, HEPES 5, adjusted to pH 7.3 with KOH. Amphotericin-B solution was prepared as 50 mg/ml stock solution in DMSO and diluted to a final working concentration of 0.1 mg/ml in intracellular solution.
The final assay dilution was 200 and the final compound concentrations were in the range 50 μM to 50 nM.
The recordings were analysed and filtered using both seal resistance (>20 MΩ) and peak current amplitude (>500 pA at the voltage step of 40 mV) in the absence of compound to eliminate unsuitable cells from further analysis. Kv3 channel-mediated outward currents were measured determined from the mean amplitude of the current over the final 10 ms of the −15 mV voltage pulse minus the mean baseline current at −70 mV over a 10 ms period just prior to the −15 mV step. This Kv3 channel currents following addition of the test compound were then compared with the currents recorded prior to compound addition. […] The normalised data were analysed using ActivityBase or Excel software.

[2] = test system: common marmosets (Callithrix jacchus); test: Pharmaco-electroencephalography (phEEG) in the common marmoset; format: in vivo
Protocol: Laboratory bred male (vasectomised) and female common marmosets (Callithrix jacchus) over 2 years of age, weighing 250-500 g were used in this study. The animals were caged in couples, in a housing room maintained at 25±1° C., 60% humidity and a 12 hour light/dark cycle (lights on at 0600, with 30 min simulated dawn and twilight). Animals received a standard diet and drinking water ad libitum. Only one animal of each pair was involved in the test, which was carried out with the animal situated in the home cage.
The effect of compounds of the disclosure was assessed using telemetric recording of cortical EEG (ECoG). A multichannel telemetric transmitter (DSI model TL11M2-F40-EET) is implanted intraperitoneally using standard surgical techniques in anaesthetised marmosets. Recording electrodes were permanently fixed, with dental cement, to the skull directly in contact with the dura mater through two drilled holes in the fronto-parietal region. Following surgery, animals were housed in pairs (one implanted, one unoperated partner) in their home cage with access to food and water ad libitum. […] All in vivo studies were conducted in accordance with the Italian laws and conformed to GlaxoSmithkline ethical standards.
The animals were placed in the nest-boxes in their room cages and EEG traces were recorded using Dataquest ART software for a 5-min period for each time-point and analyzed using Spike2 software (CED, UK). The spectral power in each frequency band was determined for each 2 sec epoch during the pre-treatment period and averaged; similarly spectral power in each band was determined for successive 2 sec epochs of each 5-min period of recording following vehicle or drug treatment. Change in the absolute spectral power, for each of the different bands (delta, theta, alpha and beta) was calculated offline.
Drug treatments were assigned according to a complete crossover design: All treatments were randomly distributed between animals, in separate experimental sessions, each animal received vehicle and each dose of drug, after an appropriate wash-out period.
Six animals were treated orally with Reference Example RE2 at the doses of 0.3, 1 and 3 mg/kg (1 ml/kg) and the EEG traces were recorded at +15, 30, 60, 90, 120 and 180 minutes following treatment. Reference Example RE2 was suspended in 12.5% (w/v) aqueous captisol containing 0.1% (w/v) Tween80 and 0.5% (w/v) HPMC.
Four different frequency bands were considered: delta (1.50-6.00 Hz), theta (6.00-8.00 Hz), alpha (8.00-12.00 Hz) and beta (12.00-30.00 Hz). Values for spectral power in each band at each time point were first log transformed and then analysed with a mixed effect model with time as fixed effect, the baseline level as covariate, and animal as random term. Data are summarised as mean of the percentage changes from baseline and standard error.

[3] = compound 3.1 μM (concentration giving ~0.3 nA current)
[4] = compound 1.6 μM (concentration giving ~0.3 nA current)
[5] = compound 0.8 μM (concentration giving ~0.3 nA current)
[6] = compound 0.4 μM (concentration giving ~0.3 nA current)

With `CCc1cc(Oc2ccc(N3C(=O)N[C@H](CC)C3=O)cn2)ccc1C#N` the “Tauact mean” value [1, 3] was 8.2 ms.
For `CC[C@@]1(C)NC(=O)N(c2cnc(Oc3ccc(C)c4c3C3(CC3)CO4)nc2)C1=O` [Example 51, (5R)-5-ethyl-5-methyl-3-[2-(7-methylspiro[2H-benzofuran-3,1′-cyclopropane]-4-yl)oxypyrimidin-5-yl]imidazolidine-2,4-dione], the “Tauact mean” value [1, 4] was 21.3 ms.
In the case of `CC[C@H]1NC(=O)N(c2ccc(Oc3ccc(C#N)c(C(C)C)c3)nc2)C1=O` [RE4, 4-({5-[(4R)-4-ethyl-2,5-dioxo-1-imidazolidinyl]-2-pyridinyl}oxy)-2-(1-methylethyl)benzonitrile], the “Tauact mean” value [1, 5] is reported as 9.2 ms.
For `CC[C@H]1NC(=O)N(c2cnc(Oc3ccc(C)c4c3C3(CC3)CO4)nc2)C1=O` [Example 61, (5R)-5-ethyl-3-[2-(7-methylspiro[2H-benzofuran-3,1′-cyclopropane]-4-yl)oxypyrimidin-5-yl]imidazolidine-2,4-dione], the “Tauact mean” value [1, 5] was 31.5 ms.
`CC[C@H]1NC(=O)N(c2ccc(Oc3ccc(C)c4c3C3(CC3)CO4)nc2)C1=O` [Example 62, (5R)-5-ethyl-3-[6-(7-methylspiro[2H-benzofuran-3,1′-cyclopropane]-4-yl)oxy-3-pyridyl]imidazolidine-2,4-dione] was tested, and the “Tauact mean” value [1, 6] was 34.8 ms.
In the case of `CC[C@H]1NC(=O)N(c2ccc(Oc3ccc(C#N)cc3C3CC3)nc2)C1=O` [RE5, 3-cyclopropyl-4-({5-[(4R)-4-ethyl-2,5-dioxo-1-imidazolidinyl]-2-pyridinyl}oxy)benzonitrile], the “Tauact mean” value [1, 3] is reported as 13.0 ms.
In the case of `CC[C@H]1NC(=O)N(c2ccc(Oc3ccc(C)c4c3C(C)(C)CO4)nc2)C1=O` [Example 63, (5R)-5-ethyl-3-{6-[(3,3,7-trimethyl-2,3-dihydro-1-benzofuran-4-yl)oxy]-3-pyridinyl}-2,4-imidazolidinedione], the “Tauact mean” value [1, 6] is reported as 28.0 ms.
`CC1(C)NC(=O)N(c2ccc(Oc3cccc4c3C3(CC3)CO4)nc2)C1=O` [Example 16, 5,5-dimethyl-3-[6-(spiro[1-benzofuran-3,1′-cyclopropan]-4-yloxy)-3-pyridinyl]-2,4-imidazolidinedione] was tested, and the “Tauact mean” value [1, 6] was 19.3 ms.
`CC[C@H]1NC(=O)N(c2cnc(Oc3ccc(C)c4c3C(C)(C)CO4)nc2)C1=O` [Example 64, (5R)-5-ethyl-3-{2-[(3,3,7-trimethyl-2,3-dihydro-1-benzofuran-4-yl)oxy]-5-pyrimidinyl}-2,4-imidazolidinedione] was tested, and the “Tauact mean” value [1, 4] was 25.0 ms.
With `CC[C@H]1NC(=O)N(c2ccc(Oc3ccc(C#N)c(OC(C)C)c3)nc2)C1=O` [RE8, 4-({5-[(4R)-4-ethyl-2,5-dioxo-1-imidazolidinyl]-2-pyridinyl}oxy)-2-[(1-methylethyl)oxy]benzonitrile] the “Tauact mean” value [1, 3] was 9.7 ms.
In the case of `CC[C@H]1NC(=O)N(c2ccc(Oc3ccc(C#N)c(OC(F)(F)F)c3)nc2)C1=O` [RE7, 4-({5-[(4R)-4-ethyl-2,5-dioxo-1-imidazolidinyl]-2-pyridinyl}oxy)-2-[(trifluoromethyl)oxy]benzonitrile], the “Tauact mean” value [1, 3] is reported as 10.4 ms.
For `CC1COc2cccc(Oc3ccc(N4C(=O)NC(C)(C)C4=O)cn3)c2C1` (single isomer, unassigned) [Example 25, 5,5-dimethyl-3-{6-[(3-methyl-3,4-dihydro-2H-chromen-5-yl)oxy]-3-pyridinyl}-2,4-imidazolidinedione], the “Tauact mean” value ([1]; compound 6.25 μM (concentration giving ~0.3 nA current)) was 7.87 ms.
With `CC[C@@]1(C)NC(=O)N(c2ccc(Oc3ccc(C)c(OC)c3)nc2)C1=O` [RE2, (5R)-5-ethyl-5-methyl-3-(6-{[4-methyl-3-(methyloxy)phenyl]oxy}-3-pyridinyl)-2,4-imidazolidinedione] the “Tauact mean” value ([1]; compound 12.5 μM (concentration giving ~0.3 nA current)) was 7.3 ms, the “absolute EEG power in the beta band” value ([2]; 1 mg/kg oral, at 30 minutes (concomitant), vs vehicle, p<0.05) was “significant reduction” and the “absolute EEG power in delta band” value ([2]; 1 mg/kg oral, at 30 minutes, vs vehicle, p<0.10) was “marginally significant (p<0.10) increase”. For the same molecule, the “EEG theta band power” value ([2]; 3 mg/kg oral, at 60 minutes, vs vehicle, p<0.05) was “statistically significant increase”, the “absolute EEG power in the delta band” value ([2]; 3 mg/kg oral, between 30 and 120 minutes, vs vehicle, p<0.05) was “statistically significant increase” and the “EEG power in the alpha band” value ([2]; any dose (0.3, 1, 3 mg/kg oral)) was “No significant effects”.
`CC[C@H]1NC(=O)N(c2ccc(Oc3ccc(C#N)cc3C(C)(C)C)nc2)C1=O` [RE3, 3-(1,1-dimethylethyl)-4-({5-[(4R)-4-ethyl-2,5-dioxo-1-imidazolidinyl]-2-pyridinyl}oxy)benzonitrile] was tested, and the “Tauact mean” value ([1]; compound 0.2 μM (concentration giving ~0.3 nA current)) was 23.0 ms.
`CC[C@@]1(C)NC(=O)N(c2ccc(Oc3ccc(C)c4c3C3(CC3)CO4)nc2)C1=O` [Example 65, (5R)-5-ethyl-5-methyl-3-[6-(7-methylspiro[2H-benzofuran-3,1′-cyclopropane]-4-yl)oxy-3-pyridyl]imidazolidine-2,4-dione] was tested, and the “Tauact mean” value [1, 5] was 24.0 ms.
